Values after ≈ are worked out from the molar mass of the structure shown.
Details: buffer; pH 7.4; 200.0 µM

**Q.** Which solubility kinetic does the source give for Cc1ccc(C)c(Nc2c([N+](=O)[O-])c(=O)oc3ccccc23)c1 here?
**A.** The solubility kinetic was 2.4 µg/mL (≈ 7.73 µM).

**Q.** With CC1CN(C(=O)Nc2ccc(Br)cc2Cl)CC(C)O1 (centres undefined) as the compound, how does the solubility kinetic read?
**A.** The solubility kinetic was 30.3 µg/mL (≈ 87.2 µM).

**Q.** With COc1ccc(NC(=S)Nc2cnc3ccccc3c2)c(OC)c1 as the compound, how does the solubility kinetic read?
**A.** Its solubility kinetic is 45.1 µg/mL (≈ 133 µM).

**Q.** Which solubility kinetic does the source give for COC(=O)C(C)N=Cc1ccccc1 (centres undefined) here?
**A.** The solubility kinetic was 21 µg/mL (≈ 110 µM).

**Q.** For O=C(O)Cc1csc(-c2cccc(F)c2)n1, which solubility kinetic is on record?
**A.** Its solubility kinetic is greater than 35.6 µg/mL.

**Q.** Which solubility kinetic does the source give for COc1ccc(C(C)=O)cc1COC(=O)CNC(=O)C1CCCCC1 here?
**A.** The solubility kinetic was greater than 52.1 µg/mL.

**Q.** Which solubility kinetic does the source give for O=[N+]([O-])c1ccc(S(=O)(=O)c2cccc(C(F)(F)F)c2)nc1 here?
**A.** Its solubility kinetic is 4.4 µg/mL (≈ 13.2 µM).

**Q.** Which solubility kinetic does the source give for CN1CCC(N(C)C(=S)Nc2ccc(F)cc2)CC1 here?
**A.** Its solubility kinetic is greater than 42.2 µg/mL.

**Q.** With CC1CN(c2nc(Nc3ccccc3F)nc(N)c2[N+](=O)[O-])CC(C)O1 (centres undefined) as the compound, how does the solubility kinetic read?
**A.** Its solubility kinetic is greater than 54.4 µg/mL.

**Q.** With O=S(=O)(c1ccccc1)N1CCN(C(=S)NCCc2ccccc2)CC1 as the compound, how does the solubility kinetic read?
**A.** The solubility kinetic was 0.5 µg/mL (≈ 1.28 µM).

**Q.** Which solubility kinetic does the source give for COc1ccc(C(=O)NC(C)CCc2ccccc2)cc1[N+](=O)[O-] (centres undefined) here?
**A.** The solubility kinetic was 20.5 µg/mL (≈ 62.4 µM).

**Q.** Which solubility kinetic does the source give for Cc1cc(NC(=O)C(=O)c2c(C)[nH]c3ccccc23)no1 here?
**A.** The solubility kinetic was 28.2 µg/mL (≈ 99.5 µM).

**Q.** With O=C(NC1CCC(O)CC1)c1cc(Cl)c2c(c1)OCCO2 (centres undefined) as the compound, how does the solubility kinetic read?
**A.** Its solubility kinetic is 35.6 µg/mL (≈ 114 µM).

**Q.** For Cc1cc[n+](-c2ccccc2)c2ccccc12.[Cl-], which solubility kinetic is on record?
**A.** Its solubility kinetic is 17.3 µg/mL.

**Q.** With CN(C(=O)COc1ncnc2ccccc12)C1CCCCC1 as the compound, how does the solubility kinetic read?
**A.** The solubility kinetic was 39 µg/mL (≈ 130 µM).

**Q.** With COc1ccc(Cl)c(OC)c1C(=O)NC(=O)Nc1nc(C)nc(C)n1 as the compound, how does the solubility kinetic read?
**A.** The solubility kinetic was 51.4 µg/mL (≈ 141 µM).

**Q.** With CCOc1c(N2CC(C)OC(C)C2)c(=O)c1=O (centres undefined) as the compound, how does the solubility kinetic read?
**A.** The solubility kinetic was greater than 35.9 µg/mL.

**Q.** With Cc1ncc(/C=C2\C(=O)Nc3ccccc32)[nH]1 as the compound, how does the solubility kinetic read?
**A.** The solubility kinetic was 12.1 µg/mL (≈ 53.7 µM).

**Q.** Which solubility kinetic does the source give for Oc1c(Cl)cc(Cl)cc1CNc1ccccn1 here?
**A.** Its solubility kinetic is 3.1 µg/mL (≈ 11.5 µM).

**Q.** For CN(C)CCSc1nc2cc(S(=O)(=O)N3CCCCC3)ccc2o1, which solubility kinetic is on record?
**A.** The solubility kinetic was 41.7 µg/mL (≈ 113 µM).

**Q.** For CCNC(=S)N1CCC(C(=O)c2ccc3c(c2)OCCO3)CC1, which solubility kinetic is on record?
**A.** Its solubility kinetic is 44.8 µg/mL (≈ 134 µM).

**Q.** Which solubility kinetic does the source give for CS/C(N)=N/C(=S)Nc1cccc(Cl)c1 here?
**A.** The solubility kinetic was 31.4 µg/mL (≈ 121 µM).

**Q.** With Cc1noc(C)c1C(=O)OCC(=O)NC1CCCCC1C (centres undefined) as the compound, how does the solubility kinetic read?
**A.** The solubility kinetic was greater than 44.2 µg/mL.

**Q.** With OC(CNc1ncnc2sccc12)c1ccccc1 (centres undefined) as the compound, how does the solubility kinetic read?
**A.** The solubility kinetic was greater than 40.7 µg/mL.

**Q.** With CC(=O)Nc1ccc(S(=O)(=O)N(C)c2ccc(OCCOc3cccc(C)c3)cc2)cc1 as the compound, how does the solubility kinetic read?
**A.** Its solubility kinetic is 5 µg/mL (≈ 11 µM).

**Q.** With Cn1c(N)c(C(=O)COC(=O)CCC2CCCC2)c(=O)n(C)c1=O as the compound, how does the solubility kinetic read?
**A.** The solubility kinetic was greater than 50.6 µg/mL.

**Q.** Which solubility kinetic does the source give for CCOC(=O)N1CCN(C(=O)Cc2ccccc2OC)CC1 here?
**A.** The solubility kinetic was greater than 46 µg/mL.

**Q.** For COC(=O)c1cc(C(=O)OC)n(Cc2ccc(F)cc2)c1C, which solubility kinetic is on record?
**A.** The solubility kinetic was 10.6 µg/mL (≈ 34.7 µM).

**Q.** Which solubility kinetic does the source give for O=C1CCCN1C(=O)CSc1ccc2ccccc2n1 here?
**A.** The solubility kinetic was 41.9 µg/mL (≈ 146 µM).

**Q.** For COc1ccc(NC(=S)NCc2ccccn2)cc1OC, which solubility kinetic is on record?
**A.** The solubility kinetic was greater than 45.5 µg/mL.

**Q.** With C=CCCOc1ccccc1C(N)=O as the compound, how does the solubility kinetic read?
**A.** The solubility kinetic was 25.8 µg/mL (≈ 135 µM).

**Q.** Which solubility kinetic does the source give for NC(=O)c1ccc(NC(=O)COC(=O)CCN2C(=O)c3ccccc3C2=O)cc1 here?
**A.** Its solubility kinetic is greater than 59.3 µg/mL.

**Q.** Which solubility kinetic does the source give for COc1cccc(/C=C/C(=O)OCC(=O)N2CCCC2)c1OC here?
**A.** Its solubility kinetic is greater than 47.9 µg/mL.

**Q.** For O=C(COc1ccc(F)cc1Cl)N1CCN(C(=O)c2cccs2)CC1, which solubility kinetic is on record?
**A.** Its solubility kinetic is greater than 57.4 µg/mL.

**Q.** For CCOC(=O)c1ccc(NC(=O)N2C[C@@H]3C[C@@H](C2)c2cccc(=O)n2C3)cc1, which solubility kinetic is on record?
**A.** Its solubility kinetic is greater than 57.2 µg/mL.

**Q.** Which solubility kinetic does the source give for O=C(N/C(=C/c1ccco1)C(=O)N1CCOCC1)c1cccs1 here?
**A.** Its solubility kinetic is greater than 49.9 µg/mL.

**Q.** For O=C(CCc1ccccc1)Nc1ccc(S(=O)(=O)NC2=NCCCCC2)cc1, which solubility kinetic is on record?
**A.** Its solubility kinetic is 56.6 µg/mL (≈ 142 µM).

**Q.** With CCc1ccc(NC(=S)N2CCCCCCC2)cc1 as the compound, how does the solubility kinetic read?
**A.** Its solubility kinetic is 35.1 µg/mL (≈ 127 µM).

**Q.** With O=C(NCC(=O)c1ccccc1)OCc1ccc([N+](=O)[O-])cc1 as the compound, how does the solubility kinetic read?
**A.** Its solubility kinetic is 2.5 µg/mL (≈ 7.95 µM).

**Q.** For COc1ccccc1C(=O)OCc1ccc2sc(C)nc2c1, which solubility kinetic is on record?
**A.** The solubility kinetic was 3.1 µg/mL (≈ 9.89 µM).

**Q.** For O=C(NCCN1CCCCC1)Nc1ccccc1F, which solubility kinetic is on record?
**A.** Its solubility kinetic is greater than 39.8 µg/mL.

**Q.** Which solubility kinetic does the source give for O=C(NC12CC3CC(CC(C3)C1)C2)c1c(Cl)cccc1Cl here?
**A.** Its solubility kinetic is less than 0.7 µg/mL.

**Q.** For CCNC(=O)c1cnn(-c2ccccc2)c1-c1ccccc1, which solubility kinetic is on record?
**A.** The solubility kinetic was greater than 43.7 µg/mL.

**Q.** With COc1cccc(/C=C2\SC(=N)N(c3ccc(F)cc3)C2=O)c1 as the compound, how does the solubility kinetic read?
**A.** The solubility kinetic was 0.5 µg/mL (≈ 1.52 µM).

**Q.** With COc1cc(Cl)c(C)cc1NC(=O)CN1C(=O)C2CC=CCC2C1=O (centres undefined) as the compound, how does the solubility kinetic read?
**A.** The solubility kinetic was greater than 54.4 µg/mL.

**Q.** Which solubility kinetic does the source give for COc1ccc(C(C)=O)cc1COc1cccc2cccnc12 here?
**A.** The solubility kinetic was 15.7 µg/mL (≈ 51.1 µM).

**Q.** With CCCCc1cc(C)c(S(=O)(=O)c2ccccc2C)c(=O)[nH]1 as the compound, how does the solubility kinetic read?
**A.** Its solubility kinetic is 3.8 µg/mL (≈ 11.9 µM).

**Q.** With COc1cc(/C=C(\NC(C)=O)C(=O)N2CCCCC2)ccc1OC(C)=O as the compound, how does the solubility kinetic read?
**A.** The solubility kinetic was 47.7 µg/mL (≈ 132 µM).

**Q.** For Cc1cc(C(=O)OCC(=O)NC2CCCCC2C)c2ccccc2n1 (centres undefined), which solubility kinetic is on record?
**A.** The solubility kinetic was 6.3 µg/mL (≈ 18.5 µM).

**Q.** With O=C(NC(=S)NCc1ccccc1)c1cccs1 as the compound, how does the solubility kinetic read?
**A.** The solubility kinetic was 1.4 µg/mL (≈ 5.07 µM).

**Q.** Which solubility kinetic does the source give for O=c1cc([O-])n(Cc2ccc(F)cc2)c(=O)[nH]1.[NH4+] here?
**A.** Its solubility kinetic is greater than 38 µg/mL.

**Q.** Which solubility kinetic does the source give for CC(Oc1cccc(Br)c1)C(=O)Nc1cccc(S(=O)(=O)N2CCOCC2)c1 (centres undefined) here?
**A.** Its solubility kinetic is 16.2 µg/mL (≈ 34.5 µM).

**Q.** With O=C(COc1ccc(S(=O)(=O)N2CCOCC2)cc1)NC1CC1 as the compound, how does the solubility kinetic read?
**A.** The solubility kinetic was greater than 51.1 µg/mL.

**Q.** With COc1ccc2oc3c(c2c1)NC(=O)CN=C3c1ccccc1 as the compound, how does the solubility kinetic read?
**A.** The solubility kinetic was 3.1 µg/mL (≈ 10.1 µM).

**Q.** Which solubility kinetic does the source give for Cc1cc(=O)[nH]c(SCc2ccccc2)n1 here?
**A.** The solubility kinetic was greater than 34.8 µg/mL.

**Q.** Which solubility kinetic does the source give for CCN1C(=O)N(CC)C2C1N(CO)C(=O)N2CO (centres undefined) here?
**A.** Its solubility kinetic is greater than 38.7 µg/mL.

**Q.** With CC(C(=O)Nc1ccccc1)N(C)CCOc1ccccc1 (centres undefined) as the compound, how does the solubility kinetic read?
**A.** The solubility kinetic was 43.7 µg/mL (≈ 146 µM).

**Q.** For OCCNc1nc(-c2ccccc2)c2cc(Br)ccc2n1, which solubility kinetic is on record?
**A.** Its solubility kinetic is 24.2 µg/mL (≈ 70.3 µM).

**Q.** With CC(C)(C)C(=O)OCc1nc(-c2ccc3c(c2)OCCO3)cs1 as the compound, how does the solubility kinetic read?
**A.** Its solubility kinetic is less than 0.7 µg/mL.

From PubChem BioAssay AID1996
